What all share (type): functional, cell-based
One assay relates to HepG2. Briefly: Cytotoxicity against human HepG2 cells after 72 hrs by MTT assay. The conditions noted are these: HepG2, 72 h.
The next assay relates to MCF7. Nature of the assay: Cytotoxicity against human MCF7 cells after 72 hrs by MTT assay. Particulars: MCF7, 72 h. In general terms: Formazan colour is commonly taken as a measure of viable cells.
The next assay concerns HT-29. Briefly: Cytotoxicity against human HT-29 cells after 72 hrs by MTT assay. The conditions noted are these: HT-29, 72 h.
A further assay concerns MKN-28. Nature of the assay: Cytotoxicity against human MKN28 cells after 72 hrs by MTT assay. The conditions noted are these: MKN-28, 72 h.

We go through 15 molecules from ChEMBL document CHEMBL1154918, “Cytotoxic chemical constituents from the roots of Cimicifuga foetida. [corrected]” (J Nat Prod, 2010).

pIC50: −log10 of the molar value.

On to `C/C=C/C(=O)O[C@H]1[C@H](O[C@H]2CC[C@]34C[C@]35CC[C@]3(C)[C@H]6[C@H](C)C[C@H]7O[C@@]6(C[C@@H]7C(C)(C)OC(C)=O)[C@H](O)[C@@]3(C)[C@@H]5CC[C@H]4C2(C)C)OC[C@@H](O)[C@@H]1O`, for which the negative-log IC50 (pIC50) in the assay on HepG2 is 5.20; with MCF7, less than 4.00; with HT-29, 4.11; in the assay with MKN-28 it was 4.27.
The matching figures for `C/C=C/C(=O)O[C@@H]1CO[C@@H](O[C@H]2CC[C@]34C[C@]35CC[C@]3(C)[C@H]6[C@H](C)C[C@H]7O[C@@]6(C[C@@H]7C(C)(C)OC(C)=O)[C@H](O)[C@@]3(C)[C@@H]5CC[C@H]4C2(C)C)[C@H](O)[C@H]1O`: 5.89, less than 4.00, less than 4.00 and less than 4.00.
Regarding `CC(=O)O[C@@H]1[C@@H](O)[C@H](O[C@H]2CC[C@]34C[C@]35C[C@@H](OC(C)=O)[C@]3(C)[C@H]6[C@H](C)C[C@@]7(CC[C@]8(C)O[C@H]78)O[C@H]6C[C@@]3(C)[C@@H]5CC[C@H]4C2(C)C)OC[C@H]1O`, the pIC50 is 5.85 in the assay on HepG2, less than 4.00 in the assay with MCF7, 4.45 in the assay with HT-29 and less than 4.00 with MKN-28.
On to `CC(=O)O[C@@H]1[C@@H](O)[C@H](O[C@H]2CC[C@]34C[C@]35C[C@@H](OC(C)=O)[C@]3(C)[C@H]6[C@H](C)C[C@]7(C[C@H](O)[C@@]8(C)O[C@@H]78)O[C@H]6C[C@@]3(C)[C@@H]5CC[C@H]4C2(C)C)OC[C@H]1O`, for which the pIC50 in the assay with HepG2 was 4.49; with MCF7, less than 4.00; in the assay with HT-29, 4.30; with MKN-28 it was 4.27.
The matching figures for `CC(=O)O[C@@H]1C[C@@]23C[C@@]24CC[C@H](O[C@@H]2OC[C@@H](O)[C@H](O)[C@H]2O)C(C)(C)[C@@H]4CC[C@H]3[C@]2(C)[C@@H](O)[C@@]34C[C@H](C(C)(C)OC(C)=O)[C@@H](C[C@@H](C)[C@@H]3[C@@]12C)O4`: less than 4.00, 4.32, less than 4.00 and less than 4.00.
For the molecule `CC(=O)O[C@@H]1C[C@@]23C[C@@]24CC[C@H](O)C(C)(C)[C@@H]4CC[C@H]3[C@]2(C)C[C@@H]3O[C@@]4(CC[C@@]5(C)O[C@@H]45)C[C@@H](C)[C@@H]3[C@@]12C`, the pIC50 in the assay on HepG2 is 4.56; with MCF7 it was less than 4.00; with HT-29, 4.45; in the assay on MKN-28, 4.09.
The matching figures for `CC(=O)O[C@@H]1C[C@@]23C[C@@]24CC[C@H](O[C@@H]2OC[C@@H](O)[C@H](O)[C@H]2O)C(C)(C)[C@@H]4CC[C@H]3[C@]2(C)C[C@@H]3OC(C(=O)C(C)C)=C[C@@H](C)[C@@H]3[C@@]12C` [ASIATICOSIDE A]: 5.40, less than 4.00, 4.31 and 4.26.
The matching figures for `CC(=O)OC(C)(C)[C@H]1C[C@@]23O[C@@H]1C[C@@H](C)[C@@H]2[C@@]1(C)CC[C@@]24C[C@@]25CC[C@H](O)C(C)(C)[C@@H]5CC[C@H]4[C@]1(C)[C@H]3O`: 4.69, less than 4.00, less than 4.00 and less than 4.00.
In the same order, the values of `CC(=O)O[C@@H]1CO[C@@H](O[C@H]2CC[C@]34C[C@]35CC[C@]3(C)[C@H]6[C@H](C)C[C@H]7O[C@@]6(C[C@@H]7C(C)(C)OC(C)=O)[C@H](O)[C@@]3(C)[C@@H]5CC[C@H]4C2(C)C)[C@H](O)[C@H]1O` are 5.55, less than 4.00, 4.58 and less than 4.00.
Take `CC(=O)O[C@@H]1[C@@H](O)[C@H](O[C@H]2CC[C@]34C[C@]35CC[C@]3(C)[C@H]6[C@H](C)C[C@H]7O[C@@]6(C[C@@H]7C(C)(C)OC(C)=O)[C@H](O)[C@@]3(C)[C@@H]5CC[C@H]4C2(C)C)OC[C@H]1O`: the pIC50 is 6.15 with HepG2, less than 4.00 with MCF7, 4.54 in the assay with HT-29 and less than 4.00 with MKN-28.
`C[C@@H]1C[C@H]2O[C@@]3(C[C@@H]2C(C)(C)O)[C@H](O)[C@@]2(C)[C@@H]4CC[C@H]5C(C)(C)[C@@H](O[C@@H]6OC[C@H](O)[C@H](O)[C@H]6O)CC[C@@]56C[C@@]46CC[C@]2(C)[C@@H]13`: the pIC50 with HepG2 was 4.69; with MCF7, less than 4.00; in the assay with HT-29 it was less than 4.00; in the assay on MKN-28, less than 4.00.
Regarding `CC(=O)O[C@@H]1C[C@@]23C[C@@]24CC[C@H](O)C(C)(C)[C@@H]4CC[C@H]3[C@]2(C)C[C@@H]3O[C@]4(C[C@@H](C)[C@@H]3[C@@]12C)C[C@H](O)[C@@]1(C)O[C@@H]41` [ACTEINOL], the negative-log IC50 (pIC50) is 5.59 in the assay with HepG2, less than 4.00 in the assay with MCF7, less than 4.00 in the assay on HT-29 and less than 4.00 in the assay with MKN-28.
Take `CC(=O)O[C@@H]1C[C@@]23C[C@@]24CC[C@H](O)C(C)(C)[C@@H]4CC[C@H]3[C@]2(C)[C@@H](O)[C@@]34C[C@H](C(C)(C)O)[C@@H](C[C@@H](C)[C@@H]3[C@@]12C)O4`: the pIC50 is 4.37 with HepG2, less than 4.00 in the assay on MCF7, less than 4.00 in the assay on HT-29 and less than 4.00 with MKN-28.
For `C[C@@H]1C[C@H]2O[C@@]3(C[C@@H]2C(C)(C)O)[C@H](O)[C@@]2(C)[C@@H]4CC[C@H]5C(C)(C)C(=O)CC[C@@]56C[C@@]46CC[C@]2(C)[C@@H]13`, the pIC50 with HepG2 is 5.26; with MCF7, less than 4.00; in the assay on HT-29 it was 4.81; with MKN-28, 4.14.
The matching figures for `CC(C)(O)[C@@H]1Cc2c(cc3oc(CO)cc(=O)c3c2O)O1` [NORCIMIFUGIN]: 5.26, less than 4.00, less than 4.00 and less than 4.00.

Broadly, the pIC50 is −log10 of the IC50, conventionally taken in molar units.
